Measured values published in patent US20220354852A1, “TARGETING WNT SIGNALING FOR IMPROVED GLIOMA IMMUNOTHERAPY” (CITY OF HOPE, priority 2021, published 2022).
“Also recorded” adds a separate entry of the source.

What was measured:
[1] = test system: PBT147 and PBT030 metabolic pathways; experiment: NanoString nCounter human metabolic panel of PBT147 and PBT030 cells; assay type: cell-based
Procedure: FIG. 8. NanoString analysis of human metabolic pathways after treatment with ICG-001. The profiling panel consists of 770 genes targeting six fundamental themes: neurotransmission, neuron-glia interactions, neuroplasticity, cell structure integrity, neuroinflammation, and metabolism. Each assay also includes six positive and eight negative RNA assay controls, plus ten mRNA housekeeping controls. RNA was hybridized with the Codeset from the gene panel at 65° C. for 16 h. The post-hybridization probe-target mixture were quantified using the nCounter Digital Analyzer, and all data analysis was performed on nSolver (NanoString Technologies) metabolic panel. All raw data was normalized with internal positive and negative controls to eliminate variability unrelated to the samples, then normalized to the selected housekeeping genes using Geometric Means methods.
FIG. 17. (A-F) NanoString analysis of human metabolic pathways after treatment with ICG-001. The profiling panel consisted of 770 genes targeting six fundamental themes: neurotransmission, neuron-glia interactions, neuroplasticity, cell structure integrity, neuroinflammation, and metabolism. Each assay also included six positive and eight negative RNA assay controls and ten mRNA housekeeping controls. RNA was hybridized with the Codeset from the gene panel at 65° C. for 16 h. The post-hybridization probe-target mixture was quantified using the nCounter Digital Analyzer and all data analysis was performed using the nSolver metabolic panel (NanoString Technologies). All raw data was normalized with internal positive and negative controls to eliminate variability unrelated to the samples and then normalized to the selected housekeeping genes using Geometric Means methods. PBT147 and PBT030 cells were treated with ICG-001 at […] for 24 h (data not shown) or 72 h. Total RNA was collected for NanoString analysis from triplicate samples.
PBT147 and PBT030 PBT cells were treated with ICG-001 (0, 5, or 10 μM) for 24-72 h. RNA expression was then analyzed using the NanoString nCounter platform (NanoString Technologies) by digitally detecting and counting in a single reaction without amplification using the NanoString human metabolic panel (City of Hope Molecular Pathology Core) (Geiss, Bumgarner et al. 2008). The data indicates change in a several metabolic markers and antigen presentation increased by PBT cells lines after treatment with ICG-001 at both time points. […] An increased p53 pathway and mitochondrial respiration was also observed at both time points and both cell lines.
ICG-001 Affects PBT tumor metabolism. The N-termini of the Kat3 coactivators, i.e. CBP and p300, provide a highly evolutionarily conserved hub to integrate multiple signaling cascades to coordinate cellular metabolism with the regulation of cellular status and function and specifically that p300/β-Catenin mediated transcription is required to enhance mitochondrial OXPHOS during the initiation of cellular differentiation (Hu et al. 2021, Thomas & Kahn 2016). Therefore, patient-derived GBM cell lines PBT147 and PBT030 lines were treated with ICG-001 (0, 5, or 10 μM) for 24 h or 72 h (FIG. 17 shown differences in both cells lines at 72 h). RNA isolated from the treated PBT cells was analyzed using the NanoString nCounter metabolic panel (NanoString Technologies). This approach digitally detects and counts gene transcripts in a single reaction without amplification (analysis done by City of Hope Molecular Pathology Core) (Geiss et al. 2008).

[2] = test system: human patient-derived glioma (PBT017, PBT030, PBT135, PBT144, and PBT147); experiment: ICG-001 single agent on human patient-derived glioma cell lines (growth kinetics, morphology); assay type: cell-based
Procedure: FIG. 2. Combinational strategy of CAR T cell-mediated tumor-antigen targeting with ICG-001 induced differentiation in glioma. […] (B) Cytotoxicity of HER2 CAR-T cells and tumor cells (1:5 ratio) was enhanced by ICG-001 at concentrations 1.25-5 μM. (C) Treatment of PBT138 patient glioma tumors with CAR T IL13Rα2+/−ICG-001.
FIG. 11. (A, B) Growth kinetics of human PBT glioma lines (PBT017, PBT030, PBT135, PBT144, and PBT147) treated with ICG-001 (0-10 μM) for 7 days and (C) mouse glioma cells (GL261, GL261-IL13, and K-luc) treated with ICG-001 (0-10 μM) for 4 days. Red boxes indicate PBT030 and PBT147 cell lines used for Nanostring and proteomics analysis. Scale bars represent S.D. of triplicate samples. (D-F) Growth kinetics of PBT017 (2,500 cells/well) treated with or without HER2-CAR T cells (500 cells/well) and with or without ICG-001 (0-5 μM). The red line is CAR T cell treatment only and the bottom three lines are with ICG-001. Experiment was done in quadruplicate and error bars indicate S.D.
PBT tumor cells lines are patient derived tumors dissociated and grown in DMEM/F12 medium, supplemented with heparin, hepes, glutamax and B27. EFG and FGF is added at the time of the culture as described previously (Brown et al. 2009). ICG-001 was kindly provided by another laboratory.
In vitro experiments. Co-culture assay of PBT cell lines grown as described above and seeded to 100,000 cells/2 ml in 6 well plates. ICG-001 is added to the cell culture in concentrations […] for 24-72 h, as described previously (Brown et al. 2013).
ICG-001 activity in vitro in human and mouse glioma cell lines. Initially, the effects of the specific CBP/β-catenin antagonist ICG-001 was tested in vitro as a single agent on human and mouse glioma cell lines (5 PBT human and 3 mouse glioma lines).

[3] = ICG-001 0, 5, or 10 μM, 24 h or 72 h
[4] = ICG-001 0, 5, or 10 μM, both time points

O=C1[C@H](Cc2ccc(O)cc2)N2C(=O)CCN(C(=O)NCc3ccccc3)[C@H]2CN1Cc1cccc2ccccc12 [ICG-001]
cell cycle-related genes [1, 3]: Downregulation; also recorded: cell cycle decrease | glutamine metabolism, ROS, mTOR, and p53 signaling [1, 3]: Upregulation | glycolysis [1, 3]: decrease | mitochondrial respiration [1, 3]: increased | antigen presentation [1, 4]: increased | immunosuppressive tryptophan/kynurenine metabolism [1, 4]: concomitant decrease | fatty acid oxidation ([1]; all treated cell lines, all timepoints): decreased in all treated cell lines at all timepoints; also recorded: decreased in all treated cells and all timepoints | effect on cell growth (growth kinetics) ([2]; ICG-001 0-10 μM, 7 days, PBT017, PBT030, PBT135, PBT144, PBT147): concentration dependent cytostatic effect | differentiation and growth of PBT017 glioma cells ([2]; ICG-001 0.75-10 μM, PBT017): differentiation and cell growth arrest | morphological phenotype ([2]; all glioma lines, demonstrated with PBT017.RFP): less proliferative and more differentiated phenotype
